According to US20200108074A1, “COMBINATIONS OF CHK1- AND WEE1- INHIBITORS” (Seattle Genetics, Inc., priority 2017, published 2020):
pIC50: −log10 of the molar value. Entries after “also recorded” stand apart in the source; their conditions may differ.

Columns and labels:
Jeko-1 cells [1] = assay: Jeko-1 MCL tumor xenograft model, combination with Wee1 inhibitor; assay type: in vivo; conditions: Compound 1 7.5 mg/kg, AZD-1775 15 mg/kg, or both
Protocol: A Jeko-1 mantle cell lymphoma (MCL) tumor xenograft model was used to study the combined effects of Chk1 inhibition with Compound 1 and a Wee1 inhibitor. Jeko-1 cells were inoculated subcutaneously into the flanks of CB17.SCID mice. Once tumors reached a volume of about 200 mm^3, mice were randomized into study groups (n=10 per group). […] A negative control group was included wherein the mice were treated with vehicle only.

Metabolic stability = assay type: in vitro ADME
Jeko-1 cells [2] = assay: Jeko-1 MCL xenograft model, single agent; conditions: mouse, in vivo
Protocol: (§1) The effects of Compound 1 were assessed in two different mantle cell lymphoma (MCL) xenograft models. Jeko-1 and or Maver-1 cells were inoculated subcutaneously in the flanks of CB17.SCID (for Jeko-1 cells) or athymic nude (for Maver-1 cells) mice. Once the tumors reached a volume of about 200 mm^3, the mice were randomized into study groups (n=10 per group). Mice were treated with Compound 1 by oral gavage, or with only vehicle as a negative control. In one treatment group, Compound 1 was administered once per day for 21 days. In the other treatment group, Compound 1 was administered twice per day for three cycles, wherein each cycle constituted treatment for three consecutive days, followed by no treatment for four consecutive days.

CYP = CYP inhibition; assay type: in vitro ADME
[3] = GLP cardiovascular safety study; assay type: in vivo; conditions: QTc interval, left ventricular pressure, contractility end points
Excerpt: 7-day repeat dose tolerability studies have been completed in mice, rats, and cynomolgus monkeys, and there have been no findings in a cynomolgus monkey GLP cardiovascular safety study (including corrected QT (QTc) interval, left ventricular pressure (LVP), and contractility end points). Compound 1 is active as a single agent, but is also active in combination with chemotherapeutic agents and Wee1 inhibitors.

NCI-H727 tumor cells = assay: NCI-H727 NSCLC tumor xenograft model, single agent; assay type: in vivo; conditions: treated mice
Protocol: (§2) In order to assess the in vivo efficacy of Compound 1, two different NSCLC xenograft models were used. SK-MES-1 or NCI-H727 tumor cells were inoculated subcutaneously in the flanks of athymic nude mice. Once tumors reached a volume of about 200 mm^3, mice were randomized into study groups (n=10 per group). Mice were treated by oral gavage with Compound 1 at a dose of 12.5, 25, or 50 mg/kg once per day. A negative control group was also included, wherein the animals were administered vehicle only.

Maver-1 cells = assay: Maver-1 MCL xenograft model, single agent; conditions: mouse, in vivo
Protocol: as §1

hERG = hERG (Homo sapiens, UniProt Q12809); assay: hERG inhibition
Efflux ratio = assay type: in vitro ADME
[4] = test system: solid and hematological tumor-derived cell lines; assay: Large cell line panel proliferation screens (CellTiter-Glo); assay type: cell-based; conditions: in vitro; lower end printed in nM, upper end in μM; read-out: IC50 values, single agent, large cell line panels
Protocol: A panel of 232 carcinoma derived cell lines was screened in a high-throughput proliferation assay using dilutions of Compound 1 or cisplatin. Cell lines were treated with serial half-log dilutions of Compound 1 or cisplatin using a starting concentration of 30 μM to achieve 9 dose levels and assayed 72 hours later for proliferation using a CellTiter-Glo® Assay (Promega). IC50 (EC50) values were calculated by fitting the dose-response data using a nonlinear regression model.
A panel of about 70 hematopoietic cell lines was screened for sensitivity to Compound 1 in a 72-hour proliferation assay (CrownBio Omnipanel). Cell lines that were screened included those representing anaplastic large cell lymphoma (ALCL), acute myeloid leukemia (AML), B-cell acute lymphoblastic leukemia (B-ALL), Burkitt lymphoma, chronic lymphocytic leukemia (CLL), chronic myelogenous leukemia (CML), mantle cell lymphoma (MCL), multiple myeloma (MM), acute promyelocytic leukemia (PML), and T-cell acute lymphoblastic leukemia (T-ALL).

Chk1 [5] = molecular target: T1, Chk1 (Homo sapiens, UniProt O14757); assay: Chk1 enzymatic assay; assay type: biochemical; conditions: 10 μM [γ-33P]-ATP, 20 μM peptide substrate (SEQ ID NO:1); read-out: IC50, enzymatic potency against Chk1
T1 sequence (O14757 1-476): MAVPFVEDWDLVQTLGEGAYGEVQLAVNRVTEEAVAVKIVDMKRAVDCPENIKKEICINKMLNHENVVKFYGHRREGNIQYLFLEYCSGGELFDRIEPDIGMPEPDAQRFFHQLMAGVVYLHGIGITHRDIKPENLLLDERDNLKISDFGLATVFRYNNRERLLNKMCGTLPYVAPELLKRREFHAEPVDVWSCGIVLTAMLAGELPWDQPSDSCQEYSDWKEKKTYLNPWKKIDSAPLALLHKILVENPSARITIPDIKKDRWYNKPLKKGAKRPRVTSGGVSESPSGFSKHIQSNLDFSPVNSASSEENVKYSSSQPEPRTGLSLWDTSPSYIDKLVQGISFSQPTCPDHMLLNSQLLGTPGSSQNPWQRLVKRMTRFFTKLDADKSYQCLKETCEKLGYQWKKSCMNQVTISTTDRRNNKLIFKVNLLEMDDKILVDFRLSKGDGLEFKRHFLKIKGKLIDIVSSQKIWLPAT

Chk1 [6] = molecular target: T1, Chk1; assay: Cellular Chk1 assay, serine 296 phospho-epitope immunoblot in HT-29 cells; assay type: cell-based; conditions: HT-29 colon carcinoma cells, 18-hour assay, anti-Chk1 serine 296 phospho-epitope antibody
Protocol: Cellular Chk1 was assayed using HT-29 colon carcinoma cells in an 18-hour assay by immunoblotting with a rabbit anti-Chk1 serine 296 phosphor-epitope antibody (obtained from Cell Signaling Technology Inc.).

MV-411 cells = assay: MV-411 AML tumor xenograft model; assay type: in vivo; conditions: single agent
Excerpt: An MV-411 tumor xenograft model was used to test the ability of Compound 1 to inhibit AML tumor growth in vivo. MV-411 cells were mixed with Matrigel in a 1:1 ratio and injected subcutaneously into the right flanks of female NOD.SCID mice. Once tumors reached a volume of about 100 to 200 mm^3, mice were randomized into study groups (n=10 per group) and dosed with Compound 1 by oral gavage.

Chk2 = Chk2 (Homo sapiens, UniProt O96017); assay: Kinase panel selectivity, IC50 relative to Chk1; assay type: biochemical
Protocol: Compound 1 was screened against a panel of 120 kinases, including those represented in FIG. 3A, using a 1 μM ATP concentration. The IC50 values, measured at the ATP Km for each kinase, are represented relative to Chk1 in FIG. 3B. Cellular IC50 values were derived from signal transduction assays in relevant cell lines using phosphor-epitope-specific antibodies.

SK-MES-1 tumor cells = assay: SK-MES-1 NSCLC tumor xenograft model; assay type: in vivo; conditions: treated mice
Protocol: as §2

Sequence of Chk2 (O96017 whole entry, species assumed): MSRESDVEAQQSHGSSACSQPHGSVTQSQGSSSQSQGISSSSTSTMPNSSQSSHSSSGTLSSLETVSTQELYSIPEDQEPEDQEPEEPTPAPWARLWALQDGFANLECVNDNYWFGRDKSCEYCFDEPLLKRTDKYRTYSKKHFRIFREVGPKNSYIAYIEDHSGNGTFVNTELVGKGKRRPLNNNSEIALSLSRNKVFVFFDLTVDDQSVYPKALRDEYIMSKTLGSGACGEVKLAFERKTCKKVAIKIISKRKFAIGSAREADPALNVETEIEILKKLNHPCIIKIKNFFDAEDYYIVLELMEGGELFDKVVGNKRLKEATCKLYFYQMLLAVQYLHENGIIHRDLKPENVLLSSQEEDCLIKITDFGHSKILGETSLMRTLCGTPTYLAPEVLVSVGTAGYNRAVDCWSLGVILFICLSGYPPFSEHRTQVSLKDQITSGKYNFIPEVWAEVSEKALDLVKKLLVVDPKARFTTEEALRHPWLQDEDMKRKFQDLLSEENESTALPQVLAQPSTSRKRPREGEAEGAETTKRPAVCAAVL
Sequence of hERG (Q12809 whole entry): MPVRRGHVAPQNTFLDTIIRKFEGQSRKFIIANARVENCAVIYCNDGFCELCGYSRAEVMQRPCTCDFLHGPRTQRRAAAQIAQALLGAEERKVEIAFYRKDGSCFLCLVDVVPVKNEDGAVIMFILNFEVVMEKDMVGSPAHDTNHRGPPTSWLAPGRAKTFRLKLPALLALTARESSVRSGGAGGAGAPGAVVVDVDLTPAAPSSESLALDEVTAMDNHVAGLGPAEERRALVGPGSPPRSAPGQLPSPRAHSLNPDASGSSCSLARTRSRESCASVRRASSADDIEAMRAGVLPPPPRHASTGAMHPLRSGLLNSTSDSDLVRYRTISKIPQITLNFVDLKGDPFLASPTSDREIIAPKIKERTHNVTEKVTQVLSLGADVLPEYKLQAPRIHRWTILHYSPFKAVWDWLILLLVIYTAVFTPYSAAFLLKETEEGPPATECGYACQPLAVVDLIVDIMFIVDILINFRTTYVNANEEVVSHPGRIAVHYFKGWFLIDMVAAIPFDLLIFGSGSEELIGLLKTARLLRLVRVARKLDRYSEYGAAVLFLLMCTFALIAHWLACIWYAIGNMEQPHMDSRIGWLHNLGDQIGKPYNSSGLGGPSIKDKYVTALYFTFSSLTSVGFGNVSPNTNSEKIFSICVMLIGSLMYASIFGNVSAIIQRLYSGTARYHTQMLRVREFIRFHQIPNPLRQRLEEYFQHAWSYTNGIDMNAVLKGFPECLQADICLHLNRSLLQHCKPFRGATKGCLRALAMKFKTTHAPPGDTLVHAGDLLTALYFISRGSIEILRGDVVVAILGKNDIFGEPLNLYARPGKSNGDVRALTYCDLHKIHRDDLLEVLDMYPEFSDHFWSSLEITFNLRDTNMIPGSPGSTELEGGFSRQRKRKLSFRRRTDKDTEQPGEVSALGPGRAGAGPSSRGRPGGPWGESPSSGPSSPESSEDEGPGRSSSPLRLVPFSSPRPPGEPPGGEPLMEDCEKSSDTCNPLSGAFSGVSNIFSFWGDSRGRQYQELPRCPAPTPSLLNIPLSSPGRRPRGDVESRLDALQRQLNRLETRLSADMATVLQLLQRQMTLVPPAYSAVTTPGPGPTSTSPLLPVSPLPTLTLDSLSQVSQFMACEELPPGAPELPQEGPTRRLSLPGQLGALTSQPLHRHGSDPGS

SMILES	tumor growth (Jeko-1 cells [1]; oral gavage once per day, three cycles of 3 days on/4 days off)	metabolic stability (Metabolic stability)	tolerability (body weight) (Jeko-1 cells [2])	CYP inhibition (CYP)	cardiovascular safety findings [3]	effect on body weight (NCI-H727 tumor cells)	tolerability (body weight) (Maver-1 cells)	hERG inhibition index (hERG)	efflux ratio (Efflux ratio)	IC50 [4] [nM]	pIC50 (Chk1 [5])	tolerability (body weight) (Jeko-1 cells [1])	pIC50 (Chk1 [6])	tolerability (body weight) (MV-411 cells)	selectivity for Chk1 over Chk2 (Chk2)	effect on body weight (SK-MES-1 tumor cells)
C=CCn1c(=O)c2cnc(Nc3ccc(N4CCN(C)CC4)cc3)nc2n1-c1cccc(C(C)(C)O)n1 [AZD-1775, 2-allyl-1-(6-(2-hydroxypropan-2-yl)pyridin-2-yl)-6-((4-(4-methylpiperazin-1-yl)phenyl)amino)-1H-pyrazolo[3,4-d]pyrimidin-3(2H)-one, reference compound]	inhibited by both agents alone															
COc1cc(C2(F)CCN(C)CC2)ccc1-c1cc(Nc2cnc(C#N)cn2)n[nH]1 [Compound 1, 5-((5-(4-(4-fluoro-1-methylpiperidin-4-yl)-2-methoxyphenyl)-1H-pyrazol-3-yl)amino)pyrazine-2-carbonitrile]		good	well-tolerated	no CYP inhibition liabilities	low risk of cardiotoxicity; also recorded: no findings	minimal effects on body weight	well-tolerated	excellent	low	≥ 30	9.91	well-tolerated	9.29	well-tolerated	more than 1,000 ×	minimal effects on body weight
